According to the SangsterLogP compilation:

settings: not given

Row | Structure (SMILES) | logP
1 | O=c1c2ccccc2oc2ccccc12 | 3.39
2 | Cc1cc(=O)cc(C)o1 | 0.1
3 | COC(=O)C(F)(F)F | 0.6
4 | CC(C)(C)NCC(O)COCC=Cc1ccccc1 (configuration not stated) | 2.69
5 | CCC(C)Cl (configuration not stated) | 2.33
6 | O=S1(=O)OCC2C(CO1)C1(Cl)C(Cl)=C(Cl)C2(Cl)C1(Cl)Cl (configuration not stated) | 3.66
7 | Cn1ccc(=O)n(C)c1=O | -0.54
8 | CC(C)[C@H](NC(=O)[C@H](Cc1ccccc1)NC(=O)OC(C)(C)C)C(=O)O | 2.88
9 | CCN(CC)S(=O)(=O)c1ccc(OC)c(N)c1 | 1.7
10 | FC(F)(F)c1ccc(C(F)(F)F)cc1 | 3.83
11 | Cc1cccc(OCc2ccccc2)n1 | 3.43
12 | Nc1ccc(S)cc1 | 1.31
13 | ClC(Cl)C(Cl)(Cl)Cl | 3.22
14 | Cn1cccc1/C=N/NC(=S)Nc1ccccc1 | 3.64
15 | C=CC1(C)OC(=O)N(c2cc(Cl)cc(Cl)c2)C1=O (configuration not stated) | 3.1
16 | CCC1OC(=O)C(C)C(OC2CC(C)(OC)C(O)C(C)O2)C(C)C(OC2OCC(O)C(N=[N+]=[N-])C2O)C(C)(O)CC(C)C(=O)CC(O)C1(C)O (configuration not stated) | 1.76
17 | O=C1C=C(N2CC=CC2)C(=O)c2ccccc21 | 2.85
18 | Nc1c([N+](=O)[O-])cccc1[N+](=O)[O-] | 1.79
19 | CN1C(=O)CCC1=O | -0.95
20 | FC(F)(F)c1cccc(C(F)(F)F)c1 | 3.83
21 | CCC(=O)N(C)C | -0.11
22 | N#Cc1ccc(C#N)cc1 | 0.93
23 | O=C1CC(OC(=O)c2ccccc2)N1 (configuration not stated) | 1.37

Row | Structure (SMILES) | logP
24 | O=C(CCBr)N1CCN(C(=O)CCBr)CC1 | 0.42
25 | CC(C)c1ccc(O)cc1 | 2.9
26 | CC(C)(C)Cl | 1.82
27 | c1ccc(-c2csnn2)cc1 | 2.42
28 | C=CCCC=C | 2.87
29 | NNP(=O)(Oc1ccccc1)Oc1ccccc1 | 1.51
30 | CN(C)N=Nc1cccc2oc3ccccc3c12 | 4.55
31 | Oc1ccc(CCNCCCCCCNCCc2ccccc2)cc1O | 1.88
32 | CC(=O)CCC(C)=O | -0.27
33 | C=CCSc1ccccc1 | 3.51
34 | CCOC(=O)CC(=O)C=Cc1ccc2c(c1)OCO2 | 2.35
35 | CCOc1cccc(Cl)n1 | 2.55
36 | CC(C)(C)c1cccc(C(C)(C)C)n1 | 4.14
37 | NC(=O)OCCC1=C(N2CC2)C(=O)C(Br)=C(N2CC2)C1=O | 0.68
38 | Cn1cccn1 | 0.23
39 | CCC(C)c1cc([N+](=O)[O-])cc(C(C)CC)c1O (configuration not stated) | 4.8
40 | COc1ccc([N+](=O)[O-])cc1N | 1.47
41 | O=C(NCCN1CCC(O)(c2ccc(Cl)cc2)CC1)c1ccc(F)cc1 | 2.85
42 | NC(=O)Nc1cccc2cccnc12 | 1.62
43 | NC(=O)C(Cl)Cl | 0.19
44 | O=Cc1ccccn1 | 0.44
45 | CC(=O)N=c1[nH]c(=O)ccn1C1OC(COC(C)=O)C(OC(C)=O)C1OC(C)=O (configuration not stated) | -0.16
46 | O=C(N/N=C/c1ccco1)Nc1ccccc1 | 2.52

Row | Structure (SMILES) | logP
47 | CCCSP(=O)(OCC)SCCC | 3.59
48 | CN(C)C(=S)NN | -0.3
49 | O=[N+]([O-])c1cccc(SSc2cccc([N+](=O)[O-])c2)c1 | 4.06
50 | COC(=O)C(Cl)(Cl)Cl | 2.03
51 | CCCCOC | 1.66
52 | CCON=C(OC(=O)c1ccccc1)c1c(OC)ccc(Cl)c1OC | 2.4
53 | c1ccc(-c2ccncn2)cc1 | 1.92
54 | COC(=O)C(C)(C)C | 1.83
55 | O=C(O)Cc1ccccc1Nc1c(F)cccc1Cl | 3.8
56 | N#CC#N | 0.07
57 | Clc1cc(Cl)c2cc(Cl)cc(Cl)c2c1 | 6.19
58 | Nc1ccccc1S(N)(=O)=O | 0.22
59 | C=C(C)Cl | 2
60 | COC(=O)c1cc(Cl)ccc1N | 3.3
61 | N#C/C=C/C#N | -0.25
62 | c1ccc(OP2OCCO2)cc1 | 1.42
63 | CC1CN1C1=C(F)C(=O)C(N2CC2C)=C(F)C1=O (configuration not stated) | 1.61
64 | NC(=O)CCNC(=O)C(F)(F)Cn1cncc1[N+](=O)[O-] | -0.95
65 | O=C(O)c1ccc2c(c1)OCCOCCOCCOCCOCCO2 | -0.28
66 | CN(C)C(CSS(=O)(=O)c1ccccc1)CSS(=O)(=O)c1ccccc1 | 3.36
67 | COc1cccc2ccccc12 | 3.63
68 | COc1ccc(S(C)(=O)=O)cc1 | 0.76
69 | Cc1cc(C)[nH]n1 | 1.01

Row | Structure (SMILES) | logP
70 | CC(C)SC(C)C | 2.84
71 | O=S(Cc1ccccc1)Cc1ccccc1 | 1.99
72 | N#Cc1sc2c(=O)c3ccccc3c(=O)c=2sc1C#N | 2.84
73 | Cn1c(N)nc2cc(Cl)c(Cl)cc21 | 2.98
74 | Cc1ccc(-c2noc(C)n2)cc1 | 2.74
75 | c1ccc(COCc2ccccc2)cc1 | 3.31
76 | c1ccc2c(c1)CCc1ccccc1-2 | 4.52
77 | O=C(O)Cc1csc(-c2ccc(Cl)cc2)n1 | 3.29
78 | CN(C)C1=CC(=O)C(N(C)C)=CC1=O | 1.03
79 | O=C(O)Cc1ccccc1Nc1c(F)cccc1F | 3.57
80 | CNC(=S)N(C)C | 0.1
81 | CCOC(=O)C(Cl)(Cl)Cl | 2.39
82 | CN(C)c1cccnc1 | 1.41
83 | CCCCOC(NC(=O)c1ccccc1O)C(Cl)(Cl)Cl (configuration not stated) | 4.45
84 | CCC1=C(N2CC2)C(=O)C(C)=C(N2CC2)C1=O | 1.35
85 | Cc1ccc2c(c1)nc(N)n2C | 1.47
86 | O=C(NCCO)C(F)(F)Cn1cnc([N+](=O)[O-])n1 | -0.77
87 | CSc1nc2nc(Cl)ccc2[nH]1 | 2.39
88 | CCc1ccncc1 | 1.65
89 | Cc1ccnc(=O)[nH]1 | -1.45
90 | N#CCc1cccc(Oc2ccccc2)c1 | 3.03
91 | COCCOc1ccccc1OCCOC | 1.12
92 | CNC(=S)NNc1ccccc1 | 1.17

Row | Structure (SMILES) | logP
93 | Fc1cccnc1 | 0.77
94 | Cc1ccc(/N=C/N(C)/C=N/c2ccc(C)cc2C)c(C)c1 | 5.5
95 | CCNC(=O)c1ccoc1 | 0.72
96 | CN(C(=S)c1ccccc1)c1ccccc1 | 3.12
97 | CCOC(=O)N(C)C | 0.89
98 | O=[N+]([O-])Nc1ccccn1 | -1.02
99 | CN(C)N=Nc1ccc(CCCC(=O)O)cc1 | 2.62
100 | Nc1ccc(Cl)c([N+](=O)[O-])c1 | 2.06
101 | O=C1C(F)=C(N2CC2)C(=O)C(N2CC2)=C1N1CC1 | 0.14
102 | Clc1cc(Cl)nc(-c2ccccc2)n1 | 4.17
103 | NC1CC1 | 0.07
104 | O=C1C(Br)=C(N2CC2)C(=O)C(Br)=C1N1CC1 | 2.03
105 | CCCCC(=O)OC | 1.96
106 | CNC1=CC(=O)c2ccccc2C1=O | 1.74
107 | Fc1cccc(F)n1 | 1.17
108 | CCS(=O)(=O)c1c([N+](=O)[O-])ncn1C | -0.37
109 | [O-][n+]1ccccc1 | -1.2
110 | COC=O | 0.03
111 | Oc1ccc(Sc2ccc(O)cc2)cc1 | 3.34
112 | Nc1n[nH]c(Cc2ccc([N+](=O)[O-])o2)n1 | 1.28
113 | CC(=O)OC[C@H]1O[C@@H](n2ncc(=O)[nH]c2=O)[C@H](OC(C)=O)[C@@H]1OC(C)=O | -0.2
114 | CC(C)(C)C(=O)C(C)(C)C | 3
115 | CNc1c(Cl)cccc1Cl | 2.91

same assay, conditions: pH 1.0

Row | Structure (SMILES) | logD
116 | CC1CC(C(=O)O)=C(C(=O)O)C(C)C1 (configuration not stated) | 1.53
117 | O=C(O)c1cc2ccccc2o1 | 2.41
118 | CC(C=CC1=C(C)CCCC1(C)C)=CC=CC(C)=CC(=O)O | 6.3
119 | CCC(C)C#N (configuration not stated) | 1.1

same assay, conditions: pH 2.1

Row | Structure (SMILES) | logD
120 | CC(=O)c1cccc(S(N)(=O)=O)c1 | 0.25
121 | CC(=O)Nc1ccc(S(N)(=O)=O)cc1 | 0

same assay, conditions: pH 3.9

Row | Structure (SMILES) | logD
122 | COC(=O)Nc1cccc(OC(=O)Nc2cccc(C)c2)c1 | 3.59

same assay, conditions: pH 4.0

Row | Structure (SMILES) | logD
123 | CC(=NNc1ccc([N+](=O)[O-])cc1[N+](=O)[O-])C(F)(F)F | 3.3
124 | O=[N+]([O-])c1cc(C(F)(F)F)ccc1NN=C(C(F)(F)F)C(F)(F)F | 4.8
125 | O=[N+]([O-])c1cc(C(F)(F)F)cc([N+](=O)[O-])c1NN=CC(F)(F)F | 2.8

same assay, conditions: pH 5.0

Row | Structure (SMILES) | logD
126 | c1n[nH]c2c1CC[C@H]1c3[nH]ncc3CC[C@H]21 | 0.3

same assay, conditions: pH 6.3

Row | Structure (SMILES) | logD
127 | CC(C)N(C)/N=N/c1ccc(C(N)=O)cc1 | 2.02

same assay, conditions: pH 7.0

Row | Structure (SMILES) | logD
128 | Nc1nc2c(ncn2[C@@H]2O[C@H](CO)[C@@H](O)[C@@H]2F)c(=O)[nH]1 | -1.18
129 | S=c1nc(-c2ccccc2)[nH][nH]1 | 1.84
130 | Clc1ccc(C2(Cn3cncn3)OCC3(CCC4OC4C3)CO2)c(Cl)c1 (configuration not stated) | 1.87

same assay, conditions: pH 7.4

Row | Structure (SMILES) | logD
131 | CCCc1ccc([N+](=O)[O-])cc1 | 3.45
132 | Cc1nc(C)c([N+](=O)[O-])[nH]1 | 0.43
133 | CN(C)c1nc2c3cccnc3ccc2n1C | 2.28
134 | O=C(NC(F)(F)F)c1cccc2cccnc12 | 3.24
135 | Cc1cc(C)c2c(c1)C(c1ccccc1)=NCC(=O)N2 | 2.94
136 | O=[N+]([O-])c1cn(Cc2ccccc2)cn1 | 1.36
137 | Cn1c(N)nc2c3nccnc3ccc21 | 1.01
138 | c1ccc(COc2cccc3cccnc23)cc1 | 3.51
139 | CCOc1cccc2cccnc12 | 2.25
140 | Cc1ncc([N+](=O)[O-])n1CCNC(=O)OC(C)C | 0.88
141 | Nc1ncc(Cc2ccccc2O)c(N)n1 | 0.82
142 | CCCc1ncc([N+](=O)[O-])n1CCNC(=S)OC | 1.94
143 | O=C1CN=C(c2ccccc2F)c2cc(Br)ccc2N1 | 2.98
144 | CC(C)c1ccc([N+](=O)[O-])cc1 | 3.45
145 | Cc1ncc([N+](=O)[O-])n1CC(O)CCl (configuration not stated) | 0.58
146 | Cc1cc(CCCCCCCOc2ccc(C3=NCCO3)cc2)on1 | 4.79
147 | CC(=O)Nc1cccc2cccnc12 | 1.91
148 | CCc1nc(C)c([N+](=O)[O-])[nH]1 | 0.76
149 | COC(=O)Cn1c([N+](=O)[O-])cnc1C | 0.17

same assay, conditions: pH 9.2

Row | Structure (SMILES) | logD
150 | C=CCOC(Cn1ccnc1)c1ccc(Cl)cc1Cl (configuration not stated) | 3.82

same assay, conditions: pH 10.6

Row | Structure (SMILES) | logD
151 | C=CCN1CCc2nc(N)sc2CC1 | 1.48

same assay, conditions: pH 12.0

Row | Structure (SMILES) | logD
152 | Nc1ccc2cc3ccc(N)cc3nc2c1 | 1.83

same assay, conditions: pH 13.0

Row | Structure (SMILES) | logD
153 | N=C(N)c1cccc([N+](=O)[O-])c1 | 0.72
154 | Nc1ncc(Cc2cccc(Cl)c2Cl)c(N)n1 | 2.81
155 | CN1CCN(C)CC1 | -0.4
156 | COc1c(C(C)C)cc(Cc2cnc(N)nc2N)cc1C(C)C | 3.47
157 | CCCNC | 0.84
158 | CNCCO | -0.94
159 | C#CCN | -0.43
160 | Cc1cc(Cc2cnc(N)nc2N)cc(C(C)C)c1N | 1.77
161 | CCc1cc(Cc2cnc(N)nc2N)cc(CC)c1N | 1.82
162 | c1ccc(C23CCN(CC2)CC3)cc1 | 2.54
